Test results as given in PMC6071264 (Toxins, 2018).
Bridge positions count the residues as written; N and C are the ends. Peptide text beside a SMILES is read from it.

Tests used:
T84 cells = T84 cells (Homo sapiens, UniProt P25092); assay: T84 cell assay (cGMP response); type: cell-based; conditions: read-out: EC50 in the T84 cell assay, pre-incubation 1 mM IBMX 10 min, sample 60 min at 37 °C, cGMP enzyme immunoassay, three independent experiments, four-parameter logistic regression, bottom set to zero, Figure 2C
[1] = tested on: C30 anti-STp monoclonal antibody; conditions: read-out: IC50, inhibition of C30 mAb binding to ELISA coating (peptides from RP-HPLC peaks)

T84 cells, sequence (P25092 24-1073): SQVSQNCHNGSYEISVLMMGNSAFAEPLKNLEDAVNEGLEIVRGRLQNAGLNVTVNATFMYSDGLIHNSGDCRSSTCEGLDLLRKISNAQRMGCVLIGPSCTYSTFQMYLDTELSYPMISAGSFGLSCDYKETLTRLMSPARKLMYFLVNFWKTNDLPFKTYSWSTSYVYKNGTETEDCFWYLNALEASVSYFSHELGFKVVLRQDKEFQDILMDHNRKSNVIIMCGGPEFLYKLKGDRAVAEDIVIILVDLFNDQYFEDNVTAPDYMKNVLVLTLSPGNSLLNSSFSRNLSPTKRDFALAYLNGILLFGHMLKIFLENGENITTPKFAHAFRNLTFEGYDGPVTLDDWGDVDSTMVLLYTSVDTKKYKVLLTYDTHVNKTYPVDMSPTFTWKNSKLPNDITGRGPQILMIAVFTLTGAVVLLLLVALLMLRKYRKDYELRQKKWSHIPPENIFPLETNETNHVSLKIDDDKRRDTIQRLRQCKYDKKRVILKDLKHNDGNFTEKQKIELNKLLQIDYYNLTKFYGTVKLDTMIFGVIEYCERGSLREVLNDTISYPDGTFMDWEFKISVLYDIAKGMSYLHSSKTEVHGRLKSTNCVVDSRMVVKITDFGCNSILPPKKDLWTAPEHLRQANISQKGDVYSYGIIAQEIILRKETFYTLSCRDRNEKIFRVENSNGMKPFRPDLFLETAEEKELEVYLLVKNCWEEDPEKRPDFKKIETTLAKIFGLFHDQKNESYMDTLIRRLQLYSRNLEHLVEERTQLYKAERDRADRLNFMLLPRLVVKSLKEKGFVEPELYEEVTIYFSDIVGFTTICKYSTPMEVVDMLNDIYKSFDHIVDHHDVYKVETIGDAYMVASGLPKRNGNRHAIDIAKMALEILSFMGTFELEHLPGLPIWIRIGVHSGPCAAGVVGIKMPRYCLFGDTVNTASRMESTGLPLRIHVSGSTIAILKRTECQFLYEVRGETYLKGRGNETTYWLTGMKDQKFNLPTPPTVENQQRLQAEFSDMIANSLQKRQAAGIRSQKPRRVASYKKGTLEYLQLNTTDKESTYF

SMILES	EC50 (T84 cells)	IC50 [1]
CC(C)C[C@@H]1NC(=O)[C@H](CCC(=O)O)NC(=O)[C@@H]2CSSC[C@@H]3NC(=O)[C@H](C)NC(=O)[C@@H]4CCCN4C(=O)[C@H](CC(N)=O)NC(=O)[C@H](CSSC[C@H](NC(=O)[C@H](Cc4ccc(O)cc4)NC(=O)[C@H](CC(N)=O)NC(=O)[C@H](CO)NC(=O)[C@H](CO)NC(=O)[C@@H](N)CC(N)=O)C(=O)N2)NC(=O)[C@H](CSSC[C@@H](C(=O)N[C@@H](Cc2ccc(O)cc2)C(=O)O)NC(=O)CNC(=O)[C@H]([C@@H](C)O)NC3=O)NC1=O [synthetic STh] (H-NSSNYCCELCCNPACTGCY-OH; disulfide 6-11, 7-15, 10-18)	9.6 ± 1.8 nM	2.3 ± 0.1 nM
CC(C)C[C@@H]1NC(=O)[C@H](CCC(=O)O)NC(=O)[C@@H]2CSSC[C@@H]3NC(=O)[C@H](C)NC(=O)[C@@H]4CCCN4C(=O)[C@H](CC(N)=O)NC(=O)[C@H](CSSC[C@H](NC(=O)[C@H](Cc4ccc(O)cc4)NC(=O)[C@H](CC(N)=O)NC(=O)[C@H](CO)NC(=O)[C@H](CO)NC(=O)[C@@H](N)CC(N)=O)C(=O)N2)NC(=O)[C@H](CSSC[C@@H](C(=O)N[C@@H](Cc2ccc(O)cc2)C(=O)O)NC(=O)CNC(=O)[C@H]([C@@H](C)O)NC3=O)NC1=O [ETEC STh] (H-NSSNYCCELCCNPACTGCY-OH; disulfide 6-11, 7-15, 10-18; N-terminus and C-terminus assumed)	22.9 ± 6.8 nM	–
CC(C)C[C@@H]1NC(=O)[C@H](CCC(=O)O)NC(=O)[C@@H]2CSSC[C@@H]3NC(=O)[C@H](C)NC(=O)[C@@H]4CCCN4C(=O)[C@H](CC(N)=O)NC(=O)[C@H](CSSC[C@H](NC(=O)[C@H](Cc4ccc(O)cc4)NC(=O)[C@H](Cc4ccccc4)NC(=O)[C@@H](NC(=O)[C@@H](N)CC(N)=O)[C@@H](C)O)C(=O)N2)NC(=O)[C@H](CSSC[C@@H](C(=O)N[C@@H](Cc2ccc(O)cc2)C(=O)O)NC(=O)CNC(=O)[C@H](C)NC3=O)NC1=O [STp]	15.4 ± 3.8 nM	–
CC(C)C[C@@H]1NC(=O)[C@H](CCC(=O)O)NC(=O)[C@@H]2CSSC[C@@H]3NC(=O)[C@H](C)NC(=O)[C@@H]4CCCN4C(=O)[C@H](CC(N)=O)NC(=O)[C@H](CSSC[C@H](NC(=O)[C@H](Cc4ccc(O)cc4)NC(=O)[C@H](CC(N)=O)NC(=O)[C@H](CO)NC(=O)[C@H](CO)NC(=O)[C@@H](N)CC(N)=O)C(=O)N2)NC(=O)[C@H](CSSC[C@@H](C(=O)N[C@@H](Cc2ccc(O)cc2)C(=O)O)NC(=O)CNC(=O)[C@H]([C@@H](C)O)NC3=O)NC1=O [STh] (H-NSSNYCCELCCNPACTGCY-OH; disulfide 6-11, 7-15, 10-18)	15.4 ± 3 nM	4.2 ± 0.3 nM
